Measurements taken from patent US7723070B2, “Overexpression of aminoacyl-tRNA synthetases for efficient production of engineered proteins containing amino acid analogues” (California Institute of Technology, priority 2000, dated 2010).
“Also recorded” adds a separate entry of the source.

What was measured:
[1] = test system: E. coli strain CAG18491/pQE15/pREP4; assay: Translational activity: mDHFR synthesis in methionine-depleted cultures of conventional host; type: cell-based; settings: for mDHFR produced relative to cultures supplemented with methionine: control yield = methionine; for Protein Yield: mDHFR from 1-liter cultures supplemented with the analogue; for translational activity: capacity to support mDHFR synthesis in absence of methionine (SDS-PAGE): methionine-depleted minimal medium, IPTG induction
Method: Buffers and media were prepared according to standard protocols (Sambrook, J.; Fritsch, E. F.; Maniatis, T. Molecular Cloning: A Laboratory Manual, 2nd Ed. Cold Spring Harbor Laboratory Press, Cold Spring Harbor, N.Y. 1989; Ausubel, F. M.; Brent, K.; Kingston, K. E.; Moore, D. D.; Scidman, J. G.; Smith, J. A.; Struhl, K. Current Protocols in Molecular Biology, John Wiley & Sons, NY 1995). The E. coli methionine auxotroph CAG18491 (λ^−, rph-1, metE3079.:Tn10) (obtained from the Yale E. coli Genetic Stock Center), was transformed with plasmids pREP4 and pQE15 (Qiagen, Valencia, Calif.), to obtain the expression host CAG18491/pQE15/pREP4.
M9AA medium (50 mL) supplemented with 1 mM MgSO4, 0.2 wt % glucose, 1 mg/L thiamine chloride and the antibiotics ampicillin (200 mg/L) and kanamycin (25 mg/L) was inoculated with 2 mL of an overnight culture of CAG18491/pQE15/pREP4. When the turbidity of the culture reached an optical density at 600 nm (OD600) of 0.8, a medium shift was performed. The cells were sedimented for 10 min at 3030 g at 4° C., the supernatant was removed, and the cell pellet was washed twice with 20 mL of M9 medium. Cells were resuspended in 50 mL of the M9AA medium described above, without methionine. […] (0.31 mM), respectively. A culture lacking methionine (or any analogue) served as the negative control. Protein expression was induced by addition of isopropyl-β-D-thiogalactopyranoside (IPTG) to a final concentration of 0.4 mM. Samples were taken every hour for 4 h, the OD600 was measured, and the samples were sedimented. After the supernatant was decanted, the cell pellets were resuspended, in 20 μL distilled H2O.
Protein expression was monitored by SDS polyacrylamide gel electrophoresis (12% acrylamide running gel, 12 mA, 14 h), using a normalized OD600 of 0.2 per sample.
The example presented is for medium supplemented with 3. M9AA medium (100 mL) supplemented with 1 mM MgSO4 0.2 wt % glucose, 1 mg/L thiamine chloride and the antibiotics ampicillin (200 mg/L) and kanamycin (25 mg/L) was inoculated with E. coli strain CAG18491/pQE15/pREP4 and grown overnight at 37° C. This culture was used to inoculate 900 mL M9AA medium supplemented as described. The cells were grown to an OD600 of 0.94 and the medium shift was performed as described for the small scale experiments, followed by addition of 40 mL of 1 mg/mL DL-homopropargylglycine (3). IPTG (0.4 mM) was added, and samples were taken at 1 hour intervals. OD600 was measured, the samples were sedimented and decanted, and the cell pellets were resuspended in 20 μL distilled H2O. Protein expression was monitored by SDS polyacrylamide gel electrophoresis (12% acrylamide running gel, 12 mA, 15 h).
Approximately 4.5 h after induction, cells were sedimented (9,800 g, 10 min, 4° C.) and the supernatant was removed. The pellet was placed in the freezer overnight. The cells were thawed for 30 min at 37° C., 30 mL of buffer (6 M guanidine-HCl, 0.1 M NaH2PO4, 0.01 M Tris, pH 8) was added and the mixture was shaken at room temperature for 1 h. […] The supernatant was loaded on 10 mL of resin which was then washed with 50 mL of guanidine buffer followed by 25 mL of urea buffer (8 M urea, 0.1 M NaH2PO4 and 0.01 M Tris, pH 8). Similar urea buffers were used for three successive 25 mL washes at pH values of 6.3, 5.9 and 4.5, respectively. […] These washes were combined and dialyzed (Spectra/Por membrane 1, MWCO=6-8 kDa) against running distilled water for 4 days, followed by batchwise dialysis against doubly distilled water for one day. […] Amino acid analyses, electrospray mass spectrometry and N-terminal protein sequencing was performed on the mDHFR isolated.

[2] = test system: B834(DE3)/pQE15/pREP4; assay: Translational activity: mDHFR synthesis in control host; type: cell-based, E. coli
Excerpt: Plasmid DNA from all B834(DE3)/pQE15-MRS/pREP4 cultures used for protein expression experiments was sequenced to confirm that it encoded wild-type MetRS. […] The expression plasmid also encodes an N-terminal hexahistidine sequence for mDHFR which permits purification of the target protein by immobilized metal chelate affinity chromatography (The Qiagen Expressionist, 1992, p. 45). Furthermore, mDHFR contains 8 methionine residues which can be replaced by methionine analogues. A control bacterial host, which produces only mDHFR and normal cellular levels of MetRS, was prepared by transforming B834(DE3) with pREP4 and pQE15.
Methionine analogues were synthesized via alkylation of diethylacetamidomalonate, as previously described (As described in Example I, infra; J. C. M. van Hest, D. A. Tirrell, FEBS Lett. 1998, 428, 68-70). […]
Cells were washed three times with M9 salts and resuspended to an optical density of 0.90 in M9 test media containing 19 amino acids plus 1) neither methionine nor analogue (negative control); 2) methionine (60 mg/liter, positive control); or 3) an analogue of interest (60 mg/liter). […] Expression of mDHFR was induced by addition of 0.4 mM isopropyl β-D-thiogalactopyranoside (IPTG), and protein synthesis was monitored after 4.5 hours.

[3] = test system: E. coli strain CAG18491/pQE15/pREP4; assay: Translational activity: mDHFR synthesis in methionine-depleted cultures of conventional host; type: cell-based; settings: analogue in place of methionine at the time of inoculation

Compound | mDHFR produced relative to cultures supplemented with methionine [1] | Protein Yield [1] [mg/L] | translational activity: capacity to support mDHFR synthesis in absence of methionine (SDS-PAGE) [1] | Protein yields ([2]; supplemented cultures) | mDHFR expression (SDS-PAGE) ([2]; 60 mg/L) | growth of cultures in minimal media with methionine replaced by analogue at inoculation [3] | substitution/replacement of methionine by analogue (1H NMR, amino acid analysis, N-terminal sequencing together) ([1]; mDHFR)
CCCC[C@H](N)C(=O)O [Analogue 9, L-norleucine] | 57% | 20 | confirmed; also recorded: does support protein synthesis; also recorded: can be detected |  |  |  | 
CSCC[C@H](N)C(=O)O [Analogue 1, L-methionine, reference compound] |  | 35 | can be detected | approximately 35 mg/liter |  |  | 
C/C=C/CC(N)C(=O)O (racemic) [Analogue 5, trans-2-amino-4-hexenoic acid] |  | 0 | neither 5 or 11 support measurable protein synthesis; also recorded: prevented incorporation; also recorded: neither 4 nor 5 were indicated to be translationally active; also recorded: did not support measurable levels of protein synthesis |  | not detected |  | 
CCCCCC(N)C(=O)O (racemic) [Analogue 7, DL-2-aminoheptanoic acid] |  |  | neither norvaline (8) nor 7 showed translational activity |  |  |  | 
2-butynylglycine [Analogue 11] |  | 0 | neither 5 or 11 support measurable protein synthesis; also recorded: not detected; also recorded: did not support measurable levels of protein synthesis |  |  |  | 
C=CCCC(N)C(=O)O (racemic) [Analogue 2, DL-2-amino-5-hexenoic acid] | 28% | 10 | exhibit translational activity sufficient to allow protein synthesis; also recorded: serve effectively as methionine surrogates; also recorded: can be detected |  |  | did not grow | 
C/C=C\CC(N)C(=O)O (racemic) [Analogue 4, cis-2-amino-4-hexenoic acid] |  |  | prevented incorporation; also recorded: neither 4 nor 5 were indicated to be translationally active |  |  |  | 
CCC[C@H](N)C(=O)O [Analogue 8, L-norvaline] |  |  | neither norvaline (8) nor 7 showed translational activity |  |  |  | 
C#CCCC(N)C(=O)O (racemic) [Analogue 3, DL-homopropargylglycine] | equivalent | 35 | exhibit translational activity sufficient to allow protein synthesis; also recorded: serve effectively as methionine surrogates; also recorded: can be detected |  |  | did not grow | near-quantitative replacement of methionine
